This is an account of results in patent publication US20220372099A1 (priority 2019, published 2022).

Data set [1] relates to erythropoietic activity. Kind of data set: repeat-dose study, 13 weekly SC doses with 35-day recovery, limiting erythropoiesis. Format: in vivo, Cynomolgus monkeys. An excerpt:
A cohort of animals (4/sex/group) were sacrificed on Day 92 (Main), and the remaining animals (2/sex/group) were sacrificed on Day 120 following a 35-day recovery period (Recovery).

Data set [2] is described as follows: plasma concentrations of Compound A in PV patients. Type of data set: in vivo, human. To be noted: SC doses of 10 mg to 80 mg, various times after dosing. The procedure: Plasma concentrations of Compound A were measured at various times after dosing of subcutaneous doses of 10 mg to 80 mg in PV patients. The concentrations increased in a dose-dependent manner and varied based on dose and time of sampling. Compound A concentrations ranged from below detectable (<2 ng/mL) to 866 ng/mL (FIGS. 17A and 17B).

A short description of data set [3]: Phase I single dose study in healthy subjects. Type of data set: in vivo, human. To be noted: 62 healthy subjects. The source says: Compound A is a hepcidin mimetic agent in clinical studies for multiple blood disorders.
The test system of data set [4] is Polycythemia vera. The experiment in a line: Phase 2 study in patients with phlebotomy-requiring Polycythemia vera. To be noted: 10-80 mg SC weekly.
Excerpt: Eligible patients were enrolled in the 28-week dose finding part of the Phase 2 trial. […] Body iron status was quantified by monitoring serum ferritin, serum iron, transferrin saturation (TSAT), mean corpuscular volume (MCV) and mean corpuscular hemoglobin (MCH).
The test system of data set [5] is erythropoietic activity. Kind of data set: repeat-dose study, 4 weekly SC doses with 28-day recovery, limiting erythropoiesis. The conditions noted are these: SC weekly x4.
Data set [6] concerns Polycythemia vera. To be noted: through week 32 (portal vein thrombosis); 6 events with BAT; cited from earlier work.
A further data set relates to serum iron. Kind of data set: PK-PD experiment, serum iron (Cobas Iron2 colorimetric assay). Format: in vivo, Cynomolgus monkeys. The conditions noted are these: 2.93 mg/kg SC. The procedure: Iron content in plasma/serum was measured using a colorimetric assay on the Cobas c 111 according to instructions from the manufacturer of the assay (assay: IRON2: ACN 661).
Data set [7] relates to Polycythemia vera. The conditions noted are these: PV mice expressing the orthologous JAK2 mutation; cited from earlier work.

For the compound `CCCCCCCCCCCCCCCC(=O)N[C@@H](CCC(=O)NCCCC[C@@H]1NC(=O)[C@H]([C@@H](C)CC)NC(=O)[C@@H](NC(=O)[C@@H]2CCCN2C(=O)[C@H](Cc2ccccc2)NC(=O)[C@H](Cc2c[nH]cn2)NC(=O)[C@@H](NC(=O)[C@H](CC(=O)O)NC(=O)CC(C)C)[C@@H](C)O)CSSC[C@@H](C(=O)N[C@@H](CCCCN)C(N)=O)NC(=O)CNC(=O)[C@H](CCCCN)NC(=O)[C@H](CO)NC(=O)[C@H](CCCNC(=N)N)NC(=O)[C@@H]2CCCN2C(=O)[C@H](CCC(=O)O)NC(=O)[C@H](Cc2ccccc2)NC1=O)C(=O)O` [Compound A], in the data set on erythropoietic activity [1] (SC weekly x13), the “dose with hematopoietic hypercellularity in bone marrow, extramedullary hematopoiesis and hemosiderin deposition in liver and spleen” value is recorded as ≥ 2 mg/kg/dose; the “dose with increased organ weight (liver and spleen)” value worked out at 6 mg/kg/dose. Moreover, in the data set with erythropoietic activity [1] (during the treatment period), the “dose with increase in total bilirubin (tBili)” value was ≥ 2 mg/kg/day. Further, the “dose with significantly elevated levels of platelets” value in the data set with erythropoietic activity [1] (male and female animals) is 6 mg/kg/dose. For the same compound, in data set [2], the “plasma concentrations of Compound A, ranged from below detectable (<2 ng/mL) up to” value is ≤ 866 ng/mL. In addition, the adverse events entry in data set [3] is recorded as “without significant adverse events”. Further, in the data set with Polycythemia vera [4], the “grade of most of the injection site reactions” value is given as 1-2 grade, the “leukocyte count over the course of treatment” value was “remained generally steady”, the “most frequent adverse events” value was “injection site reaction (ISR) reported by three patients” and the “platelet counts over the course of treatment” value was “remained generally steady”. Moreover, in the data set with Polycythemia vera [4], the tolerability result was “well tolerated”. Further, in the data set on erythropoietic activity [5], the “dose causing pharmacology-mediated anemia (dose- and time-dependent decreases in Hct and Hgb)” value is ≥ 3 mg/kg/dose.

On to `N#CC[C@H](C1CCCC1)n1cc(-c2ncnc3[nH]ccc23)cn1` [ruxolitinib], for which, in the data set with Polycythemia vera [6], the thromboembolic events is on record as 1 event.

Consider “Isovaleric acid-DTHFPCIKF(K(PEG11-Palm))PRSK[Sar]CK-NH2 [Compound B]”, for which, in the data set on serum iron, the “time of maximal serum iron reduction” value is reported as “about 12 hour”. For the same compound, the “serum iron lower than the pre-dose levels (maximal reduction)” value in the data set with serum iron (about 12 hour post administration) is on record as 12 fold.

Consider “minihepcidin: hepcidin mimetic administered to PV mice in Casu et al., Blood 2016; not further defined (DTHFPICIF)”, for which, in the data set on Polycythemia vera [7], the hematocrit result is “normalizes hematocrit” and the splenomegaly result is “significantly reduces splenomegaly”.
